Assay results: patent US7163689B2, “Intravenous valproate for acute treatment of migraine headache” (priority 1999, dated 2007)
Values joined by “and” are separate entries in the source; they are usually repeats but may differ in a detail not shown here. Identical values can stand only once. “Also recorded” adds a separate entry of the source.

Experiments:
Format in all cases: in vivo, human
[1] = test system: patients with prolonged moderate to severe migraine; test: Further expanded study (N=40): Depacon vs DHE preceded by metoclopramide, prolonged moderate to severe migraine (Example 3); details: for Headache Severity (group value, four grade rating) / Number of Patients Who Reported Nausea / Number of Patients Who Reported Phonophobia / Number of Patients Who Reported Photophobia / Responder Rate / Symptom Free patients (no headache or associated symptomatology), % / Symptom Free patients (no headache or associated symptomatology), number: N = 20 per group
Text: This Example describes a further expanded study and analysis of the effectiveness of intravenous VPA for the treatment of acute migraine headache of significant duration. Patient data from the study described in Examples 1 and 2 have been incorporated and further analyzed in addition to new patient data. • Design and Methods. Participants (N=40) were from age 14 to 74 and were established patients of the Western New England Headache Clinic. Patients called to report the pressure of prolonged moderate to severe migraine. They had no evidence of conditions other than migraine to cause headache and were medically stable. […] Patients received a neurological and general physical examination and filled out a four grade baseline headache rating from developed by Western New England Headache Clinic (see Table 2). The patients then received either 500 mg Depacon™ over 15–30 minutes administered in 100 ccs D5W, or 1 mg DHE intramuscularly preceded by 10 mg metoclopramide intramuscularly. Headache severity and associated symptomatology were rated 1, 2, and 4 hours. Results. A total of 40 patients were randomized, 20 in the Depacon™ group and 20 in the DHE group. Table VII summarizes the number of patients in each group by severity of headache (moderate or severe), demographic data and medication assignment.

[2] = test system: patients with moderate to severe headaches of 24–72 hours duration; test: Expanded study: IV VPA vs DHE with metoclopramide IM, acute migraine headache (Example 2); details: 24-h
[3] = test system: patients with moderate to severe migraine headaches of duration of 24 to 96 hrs; test: Pilot study: IV valproate vs IM DHE with metoclopramide for abortive treatment of acute migraine headache (Example 1); details: individual patient, grade 0-3; 24-h; sodium
[4] = test system: patients with moderate to severe migraine headaches of duration of 24 to 96 hrs; test: as above; details: for % Headache Relief: 5 patients per group; for Headache Severity / Nausea/vomiting / Phonophobia / Photophobia: individual patient; for Headache Severity: grade 0-3; for Nausea/vomiting / Phonophobia / Photophobia: presence
Text: This Example describes the results of a pilot study using intravenous valproate for abortive treatment of acute migraine headache. • Methods. Patients with established diagnosis of migraine with and without aura were considered for randomization to intravenous (“IV”) valproate (“VPA”) or intramuscular (“IM”) dihydroergotamine (“DHE”) with metoclopramide, also referred to herein as […]®, for patients with moderate to severe migraine headaches of duration of 24 to 96 hrs. Patients received intravenous infusion of 500 mgs of valproate over 30 mins or 1 mg DHE with 10 mgs metoclopramide IM. Headache severity, presence of nausea, phonophobia and photophobia were rated at baseline, 1 hr, 2 hrs, and 4 hrs. Table I and II. There were 5 patients in each group. • Results. Of the 5 patients receiving valproate, 4 of the 5 had response of their headaches from moderate or severe to none or mild at 1 hr, 2 hrs, and 4 hrs. Of the 5 patients receiving DHE, 3 of the 5 patients had headache response to moderate or severe to mild or none at 1 hr, 2 hrs, and 4 hrs. Table III. […] In the DHE group, 2 of 5 had nausea at baseline, and 1 had nausea at 1 hr, 2 hrs, and 4 hrs. Table IVa. […] In the DHE group, 3 of 5 had relief of photophobia at 1 hr, 4 of 5 had relief at 2 hrs and 4 hrs. […] In the DHE group, 2 of 5 had relief of phonophobia at 1 hr, and 3 of 5 had relief of phonophobia at 2 hrs and 4 hrs. Table IVb. • Conclusions. Intravenous valproate is an alternative therapy for abortive treatment of moderate to severe prolonged acute migraine headache. Anti-convulsant mechanisms may be relevant to treatment of headache symptomatology.

Compound: CCCC(CCC)C(=O)[O-].[Na+] [Depacon, valproate sodium]
- adverse events ([1]; 20 patients receiving 500 mg Depacon given during 15 to 30 minutes infusion, sodium): remarkably free of adverse event; also recorded: no adverse events
- % of Patients Who Reported Nausea ([1]; 1 hour): 53%
- % of Patients Who Reported Phonophobia ([1]; 1 hour): 74%
- % of Patients Who Reported Photophobia ([1]; 1 hour): 70%
- % of Patients Who Reported Nausea ([1]; 2 hours): 53%
- % of Patients Who Reported Phonophobia ([1]; 2 hours): 58%
- % of Patients Who Reported Photophobia ([1]; 2 hours): 50%
- % of Patients Who Reported Nausea ([1]; 4 hours): 47%
- % of Patients Who Reported Phonophobia ([1]; 4 hours): 53%
- % of Patients Who Reported Photophobia ([1]; 4 hours): 45%
- % of Patients Who Reported Nausea ([1]; Baseline): 75%
- % of Patients Who Reported Phonophobia ([1]; Baseline): 95%
- % of Patients Who Reported Photophobia ([1]; Baseline): 100%
- Headache Severity (group value, four grade rating) ([1]; 1 hour): 1.8
- Number of Patients Who Reported Nausea ([1]; 1 hour): 8
- Number of Patients Who Reported Phonophobia ([1]; 1 hour): 14
- Number of Patients Who Reported Photophobia ([1]; 1 hour): 14
- Responder Rate ([1]; 1 hour): 50%
- Headache Severity (group value, four grade rating) ([1]; 2 hours): 1.5
- Number of Patients Who Reported Nausea ([1]; 2 hours): 8
- Number of Patients Who Reported Phonophobia ([1]; 2 hours): 11
- Number of Patients Who Reported Photophobia ([1]; 2 hours): 10
- Responder Rate ([1]; 2 hours): 60%
- Headache Severity (group value, four grade rating) ([1]; 4 hours): 1.4
- Number of Patients Who Reported Nausea ([1]; 4 hours): 7
- Number of Patients Who Reported Phonophobia ([1]; 4 hours): 10
- Number of Patients Who Reported Photophobia ([1]; 4 hours): 9
- Responder Rate ([1]; 4 hours): 60%
- Headache Severity (group value, four grade rating) ([1]; Baseline): 2.7
- Number of Patients Who Reported Nausea ([1]; Baseline): 15
- Number of Patients Who Reported Phonophobia ([1]; Baseline): 19
- Number of Patients Who Reported Photophobia ([1]; Baseline): 20
- Symptom Free patients (no headache or associated symptomatology), % ([1]; at 1 hour): 10%
- Symptom Free patients (no headache or associated symptomatology), number ([1]; at 1 hour): 2
- Symptom Free patients (no headache or associated symptomatology), % ([1]; at 2 hours): 15%
- Symptom Free patients (no headache or associated symptomatology), number ([1]; at 2 hours): 3
- Symptom Free patients (no headache or associated symptomatology), % ([1]; at 4 hours): 25%
- Symptom Free patients (no headache or associated symptomatology), number ([1]; at 4 hours): 5
- response of associated symptomatology compared with the DHE group ([1]; baseline, 1, 2 and 4 hours, P>0.05): responded somewhat better, although not statistically significantly
- % experiencing Photophobia [2]: 60%
- Headache Severity [3]: 1 and 2 (2×) and 3 and 0
- % experiencing Nausea ([4]; 0-h (baseline)): 80%
- % experiencing Photophobia ([4]; 0-h (baseline)): 100%
- % experiencing phonphobia ([4]; 0-h (baseline)): 80%
- % experiencing Nausea ([4]; 1-h): 20%
- % experiencing Photophobia ([4]; 1-h): 20%
- % experiencing phonphobia ([4]; 1-h): 20%
- % experiencing Nausea ([4]; 2-h): 20%
- % experiencing Photophobia ([4]; 2-h): 20%
- % experiencing phonphobia ([4]; 2-h): 20%
- % experiencing Nausea ([4]; 4-h): 0%
- % experiencing Photophobia ([4]; 4-h): 0%
- % experiencing phonphobia ([4]; 4-h): 0%
- % Headache Relief ([4]; 1-h): 60%
- % Headache Relief ([4]; 2-h): 100%
- % Headache Relief ([4]; 4-h): 80%
- % Headache Relief ([4]; 24-h): 40%
- % experiencing Nausea ([4]; 24-h): 40%
- % experiencing Photophobia ([4]; 24-h): 40%
- % experiencing phonphobia ([4]; 24-h): 40%
- Headache Severity ([4]; 0-h (baseline), Depacon IV 500 mg or DHE 1 mg + Reglan 10 mg, sodium): 3 (3×) and 2 (2×)
- Headache Severity ([4]; 1-h, sodium): 1 (2×) and 0 (2×) and 2
- Headache Severity ([4]; 2-h, sodium): 1 (4×) and 0
- Headache Severity ([4]; 4-h, sodium): 0 (3×) and 1 and 2
- Nausea/vomiting ([4]; 0-h (baseline), sodium): 0
- Phonophobia ([4]; 0-h (baseline), sodium): 0
- Nausea/vomiting ([4]; 1-h, sodium): 0
- Phonophobia ([4]; 1-h, sodium): 0
- Photophobia ([4]; 1-h, sodium): 0
- Nausea/vomiting ([4]; 2-h, sodium): 0
- Phonophobia ([4]; 2-h, sodium): 0
- Photophobia ([4]; 2-h, sodium): 0
- Nausea/vomiting ([4]; 4-h): 0
- Phonophobia ([4]; 4-h): 0
- Photophobia ([4]; 4-h): 0
- Nausea/vomiting ([4]; 24-h, sodium): 0
- Phonophobia ([4]; 24-h, sodium): 0
- Photophobia ([4]; 24-h, sodium): 0
- patients who had nausea ([4]; of 5 patients, 1 hr): 1
- patients who had relief of phonophobia ([4]; of 5 patients, 1 hr): 4 of 5
- patients who had relief of photophobia ([4]; of 5 patients, 1 hr): 4 of 5
- patients with response of headache from moderate or severe to none or mild ([4]; of 5 patients, 1 hr): 4 of the 5
- patients who had nausea ([4]; of 5 patients, 2 hrs): 1
- patients who had relief of phonophobia ([4]; of 5 patients, 2 hrs): 4 of 5
- patients who had relief of photophobia ([4]; of 5 patients, 2 hrs): 4 of 5
- patients with response of headache from moderate or severe to none or mild ([4]; of 5 patients, 2 hrs): 4 of the 5
- patients who had nausea ([4]; of 5 patients, 4 hrs): all had relief of nausea
- patients who had relief of phonophobia ([4]; of 5 patients, 4 hrs): all had relief
- patients who had relief of photophobia ([4]; of 5 patients, 4 hrs): all had relief
- patients with response of headache from moderate or severe to none or mild ([4]; of 5 patients, 4 hrs): 4 of the 5
- patients who had nausea ([4]; of 5 patients, baseline): 4 of 5
- patients who had photophobia ([4]; of 5 patients, baseline): all had photophobia
